{"source": "paper PMC5532363", "about": "“Synergistic blending of high-valued heterocycles inhibits growth of Plasmodium falciparum in culture and P. berghei infection in mouse model” (Scientific Reports, 2017)", "key": {"[1]": {"tested_on": "P. falciparum 3D7 (Pf3D7), CQ sensitive", "assay": "SYBR Green I growth inhibition assay, asynchronous P. falciparum 3D7 culture", "format": "cell-based, Plasmodium falciparum", "conditions": "SYBR Green, mean of three experiments, NDR / No IC50 = no dose response", "from_the_text": "(§1) Antimalarial activity of all the listed Pht analogues was initially assessed on asynchronous cultures of P. falciparum 3D7 (Pf3D7) clone using the SYBR Green assay. […] The mean IC50 values are based on three separate experiments (Table 1).\n(§2) The laboratory-adapted P. falciparum strains 3D7 (Africa; CQ sensitive) and W2 (Africa; CQ resistant), were acquired from Malaria Research and Reference Reagent Resource Center (MR4) (Manassas, VA, USA) and maintained with type O +ve erythrocytes suspended in continuous complete culture medium as described. Complete culture media consisted of 10.43 g/litre of RPMI 1640-HEPES supplemented with 10% (vol/vol) human AB serum, 92.6 mg/litre L-glutamine, 50 mg/liter hypoxanthine, 2 g/litre sodium bicarbonate (Sigma-Aldrich, St. Louis, MO). Incubation of cultures was at 37 °C and maintained in a low oxygen atmosphere (5% O2, 5% CO2, 90% N). The levels of parasitemia in the cultures were maintained at between 2 and 10%, with 5% hematocrit. Media was changed after every 24 hours and parasitemia monitored every 48 hours. Synchronous cultures were prepared by sorbitol lysis. Stock solutions of the Pht, Pht analogues, and DHA were prepared in absolute dimethyl sulfoxide (DMSO) while CQ was prepared in distilled water. The prepared drug stock solutions were used immediately or stored at −80 °C for not longer than one month before use. Stock solutions were further diluted in serum free RPMI 1640 media (stock solution solvent final conc. 0.05%) before performing a 2-fold serial dilution to achieve dose ranges of 0.2 µM to 100 µM (Pht and derivatives), 7.8 to 2,000 nM (CQ) and 0.17 to 87.5 nM (DHA). 25 μL of the drug diluents were aliquoted into 96 well plates and used immediately. Alternatively, the stock solutions were diluted in distilled water, 2-fold serial dilution performed on a 96 well plate and allowed to air dry in a laminar flow hood after which dried plates were stored at 4 °C until use. SYBR Green I assay technique with additional modification was used for drug susceptibility testing of the parasites. Parasite cultures of >1% parasitemia were diluted to 1% parasitemia and 2% hematocrit and 200 μL were transferred onto drug pre-dosed plates and incubated at 37 °C for 90 hours, [40]. Drug exposure was terminated by freezing the drug plates at −80 °C for 24 hours after which lysis buffer containing (per liter) 100 mM Tris-HCl, 10 mM EDTA, 0.016% Saponin, 1.6% triton X-100 and 20X SYBR Green I dye was added and the sample incubated for 2 hours in the dark. Relative fluorescence units (RFU) were read using the Perkin Elmer Wallac 1420 fluorescence plate reader, with excitation and emission wavelengths of 485 nm and 535 nm respectively. The readouts values were aligned with corresponding drug doses and analysis performed by Graph-pad Prism software. The drug concentrations (x value) were transformed using X = Log[X] and plotted against the counts (y values) and the data analysed by non-linear regression (sigmoid dose-response/variable slope equation) to yield the IC50."}, "CQ resistant PfW2 strain": {"tested_on": "CQ resistant PfW2 strain", "assay": "SYBR Green I growth inhibition assay, P. falciparum W2 culture", "format": "cell-based", "conditions": "Plasmodium falciparum", "from_the_text": "as §1\nas §2, with “Drug exposure was terminated by freezing the drug plates at −80 °C for 24 hours after which lysis buffer containing (per liter) 100 mM Tris-HCl, 10 mM EDTA, 0.016% Saponin, 1.6% triton X-100 and 20X SYBR Green I dye was added and the sample incubated for 2 hours in the dark.” left out"}, "[2]": {"tested_on": "synchronized Pf3D7 strain cultures (rings, trophozoites)", "assay": "Stage-specificity and parasitemia titres on synchronized Pf3D7 cultures (Giemsa smears)", "format": "cell-based, Plasmodium falciparum", "conditions": "for effect on ring stage parasitemia: 6 hours post exposure of ring stages; for effect on ring stage parasitemia / effect on mature blood stage parasite titres (parasitemia): Fig. 5; for effect on mature blood stage parasite titres (parasitemia): 16 hours after incubation with trophozoite stage; for effect on progression from trophozoites to schizonts / schizont morphology: concentration = individual IC50, up to 16 hours exposure; for effect on ring-stage growth and morphology: newly synchronized rings, concentration = individual IC50, monitored at 6 and 12 hours", "experimental": "Next, we sought to determine stage-specificity of the antiplasmodial activity of the four active analogues (6a, 6h, 6m and 6u) on synchronized Pf3D7 strain cultures at 2% hematocrit and 1% parasitemia, with concentrations corresponding to individual drug IC50. To determine the effect of the compounds on both early and late ring stage parasites, the treatment was conducted on newly synchronized rings for 12 hours, and drug effect on parasite growth and morphology was monitored at 6 and 12 hours after exposure. Similarly, early trophozoites were exposed to each compound and incubated for 16 hours, and monitored at 6 and 16 hours post-exposure. The effect of the compounds on parasite morphology and development was compared in exposed and unexposed drug wells (Figs 3 and 4).\nFigure 5 Effect of Pht analogues on parasite growth titres (Note: Graphical description of the inhibitory effect of select analogues on parasite growth titres 6 hours after incubation with ring-stages and 16 hours after drug incubation with trophozoite stage. Parasitemia percentage was derived by counting the number of infected erythrocytes from a total of 2,000 erythrocytes on Giemsa stained thin smears from each experiment. Bar diagrams represent the average of three different experiments)."}, "P. falciparum 3D7": {"tested_on": "P. falciparum 3D7", "assay": "Fixed-ratio isobologram drug interaction assay with CQ/DHA, 3D7", "format": "cell-based, Plasmodium falciparum", "conditions": "Pf3D7", "experimental": "(§3) A modified fixed-ratio isobologram method was used to assess interaction between CQ/DHA and Pht analogues. Briefly, a total of 5 solutions containing fixed-ratio mixtures of Pht derivatives with either CQ or DHA were prepared in the following ratios: 1:1, 2:1, 3:2, 2:3, and 1:4. The starting concentrations for ten 2 fold-serial dilutions across the microtiter plate were assigned so that the IC50 of each drug would be in the 5th serial dilution of the plate. Each drug was tested alone and at fixed ratios of its IC50. The assessment of drug interaction was based on the calculation of the fractional inhibitory concentration (FIC) of two drugs in the […]. FIC was calculated for each association by dividing the IC50 of the drug in the combination by the IC50 of the drug alone."}, "P. falciparum W2": {"tested_on": "P. falciparum W2", "assay": "Fixed-ratio isobologram drug interaction assay with CQ/DHA, W2", "format": "cell-based, Plasmodium falciparum", "conditions": "PfW2", "experimental": "as §3"}, "[3]": {"assay": "MTT cytotoxicity assay in U937 cells", "format": "cell-based", "conditions": "human; for selectivity ratio at 24 h: U937 cells (CC50) versus 3D7 parasites (IC50), CC50 U937 / IC50 3D7, SI > 2 = low cytotoxicity, read-out: selectivity index (SI); for CC50 at 24 h: U937 cells, MTT", "experimental": "As a final step in the investigational pipeline, we determined the cytotoxic effect of the four active analogues (6a, 6h, 6m and 6u) in U937 cell lines by measuring 50% cytotoxic concentrations (CC50) and calculating selectivity indices (SIs) as a measure of toxicity in human cells.\nCytotoxicity of the 4 select Pht compounds on human cells was evaluated by assessing cell viability of the U937, a human acute monocyte leukemia cell lines by use of the MTT assay. U937 was acquired from American Type Culture Collection (ATCC, Rockville, MD) and maintained in RPMI 1640 medium supplemented with 10% fetal bovine serum, and Penicillin-streptomycin (1% v/v) (Gibco, UK) at 37 °C. Robust U937 cells at a concentration of 80,000 cells/ml were plated into 96-well plates and incubated for 24 hours. Six concentrations of the Pht compounds were added in a two-fold dilution from starting concentration of 50 to 1.56 µM in triplicate and incubated with the cells for 24 hours. This was followed by addition of 10 µL MTT solution (5 mg/mL) into each well, incubated for 4 hour at 37 °C followed by addition of 50 µL DMSO to dissolve the formazan precipitate according to manufacturer’s protocol. Aliquots were drawn from each well and color intensity was measured spectrophotometrically in an ELISA plate reader (Biotek, ELx800) at 540 nm. The cell viability ratio was calculated by the following formula: % cytotoxicity = [Mean OD of test cells] − [Mean OD of control cells]/[Mean OD of control cells] × 100. Viability counts were then plotted against corresponding drug concentrations to yield cytotoxicity (CC50) through non-linear regression (sigmoid dose-response/variable slope equation). Drug CC50 values were then used to define selectivity indices, which is a measure of drug safety in human relative to parasitic cells and was calculated as the ratio of the CC50 value determined on the U937 cells (cytotoxicity) and the IC50 value determined on parasite growth inhibition 3D7 (anti-plasmodial activity). In this study, we set SI > 2 as cut-off as an indicative of low drug cytotoxicity."}, "[4]": {"conditions": "Plasmodium falciparum, 3D7, Pf3D7, asynchronous culture, read-out: IC50 (SE) µg/mL"}}, "note": "Read-outs that look alike come from different tables or passages of the source."}
{"smiles": "CC(C)C[C@H](c1nc2ccccc2n1Cc1cn(-c2ccccc2)nn1)N1C(=O)c2ccccc2C1=O", "note": "[Compound 6a]", "values": [{"measurement": "IC50", "setting": "[1]; [4]", "value": 0.7, "unit": "µg/mL"}, {"measurement": "IC50", "setting": "CQ resistant PfW2 strain", "value": 700, "unit": "nM"}, {"measurement": "effect on ring stage parasitemia", "setting": "[2]", "value": "reduction in ring stage parasitemia"}, {"measurement": "effect on mature blood stage parasite titres (parasitemia)", "setting": "[2]", "value": "negligible"}, {"measurement": "effect on progression from trophozoites to schizonts / schizont morphology", "setting": "[2]; early trophozoites", "value": "did not interfere with development of parasite progression from trophozoites to schizonts"}, {"measurement": "effect on ring-stage growth and morphology", "setting": "[2]", "value": "active against ring-stage forms"}, {"measurement": "interaction when combined with CQ and DHA", "setting": "P. falciparum 3D7", "value": "synergistic activity"}, {"measurement": "interaction when combined with CQ and DHA", "setting": "P. falciparum W2", "value": "synergistic activity"}, {"measurement": "selectivity ratio at 24 h", "setting": "[3]", "value": "1.01 ± 1.5"}, {"measurement": "CC50 at 24 h", "setting": "[3]", "value": "910 ± 320", "unit": "nM"}]}
{"smiles": "CC(C)[C@H](c1nc2ccccc2n1Cc1cn(-c2ccc(F)cc2)nn1)N1C(=O)c2ccccc2C1=O", "note": "[Compound 6m]", "values": [{"measurement": "IC50", "setting": "[1]; Pf3D7, asynchronous culture, read-out: IC50 (SE) µM", "value": 3.5, "unit": "µM"}, {"measurement": "IC50", "setting": "[1]; Plasmodium falciparum, 3D7, Pf3D7, asynchronous culture, read-out: IC50 (SE) µM", "value": "< 5.14", "unit": "µM"}, {"measurement": "IC50", "setting": "[1]; [4]", "value": 1.8, "unit": "µg/mL"}, {"measurement": "IC50", "setting": "CQ resistant PfW2 strain", "value": 3800, "unit": "nM"}, {"measurement": "effect on ring stage parasitemia", "setting": "[2]", "value": "did not affect parasite growth"}, {"measurement": "effect on mature blood stage parasite titres (parasitemia)", "setting": "[2]", "value": "reduction in parasitemia"}, {"measurement": "effect on trophozoites", "setting": "[2]; early trophozoites, concentration = individual IC50, 6 hours after exposure", "value": "trophozoite growth did not appear to be affected"}, {"measurement": "effect on progression from trophozoites to schizonts / schizont morphology", "setting": "[2]; early trophozoites", "value": "schizonts appeared less granular and lacked distinguishable merozoites"}, {"measurement": "effect on ring-stage growth and morphology", "setting": "[2]", "value": "did not arrest ring-stage maturation"}, {"measurement": "selectivity ratio at 24 h", "setting": "[3]", "value": "1.11 ± 1.5"}, {"measurement": "CC50 at 24 h", "setting": "[3]", "value": "780 ± 320", "unit": "nM"}]}
